# Assay results as given in patent US12202821B2, “Herbicidal compounds” (SYNGENTA CROP PROTECTION AG, priority 2019, dated 2025).
# Legend:
# Assay type in all cases: in vivo
# AMAPA [1] = assay: Pre-emergence biological efficacy; conditions: 312 h, evaluated after 13 days, read-out: damage to plant (100=total damage to plant; 0=no damage to plant), AMAPA
# Protocol: (§1) Pre-Emergence Biological Efficacy
# (§2) Seeds of weeds and/or crops were sown in standard soil in pots. After cultivation for one day under controlled conditions in a glasshouse (at 24/16° C., day/night; 14 hours light; 65% humidity), the plants were sprayed with an aqueous spray solution derived from the formulation of the technical active ingredient in acetone/water (50:50) solution containing 0.5% Tween 20 (polyoxyethylene sorbitan monolaurate, CAS RN 9005-64-5) to give the desired final dose of test compound.
# (§3) The test plants were then grown under controlled conditions in the glasshouse (at 24/16° C., day/night; 14 hours light; 65% humidity) and watered twice daily. After 13 days the test was evaluated (100=total damage to plant; 0=no damage to plant).
# ECHCG [2] = assay: Pre-emergence biological efficacy; conditions: Echinochloa crus-galli, 312 h, evaluated after 13 days, read-out: damage to plant (100=total damage to plant; 0=no damage to plant), ECHCG
# Protocol: as §1, §2, §3
# EPHHL [3] = assay: Pre-emergence biological efficacy; conditions: 312 h, evaluated after 13 days, read-out: damage to plant (100=total damage to plant; 0=no damage to plant), EPHHL
# Protocol: as §1, §2, §3
# IPOHE [4] = assay: Pre-emergence biological efficacy; conditions: Ipomoea hederacea, 312 h, evaluated after 13 days, read-out: damage to plant (100=total damage to plant; 0=no damage to plant), IPOHE
# Protocol: as §1, §2, §3
# LOLPE [5] = assay: Pre-emergence biological efficacy; conditions: 312 h, evaluated after 13 days, read-out: damage to plant (100=total damage to plant; 0=no damage to plant), LOLPE
# Protocol: as §1, §2, §3
# SETFA [6] = assay: Pre-emergence biological efficacy; conditions: Setaria faberi, 312 h, evaluated after 13 days, read-out: damage to plant (100=total damage to plant; 0=no damage to plant), SETFA
# Protocol: as §1, §2, §3
# AMAPA [7] = assay: Post-emergence biological efficacy; conditions: 312 h, evaluated after 13 days, read-out: damage to plant (100=total damage to plant; 0=no damage to plant), AMAPA
# Protocol: (§4) Post-Emergence Biological Efficacy
# as §2, with “8 days” for “one day”
# (§5) The test plants were then grown on under controlled conditions in a glasshouse (at 24/16° C., day/night; 14 hours light; 65% humidity) and watered twice daily. After 13 days the test was evaluated (100=total damage to plant; 0=no damage to plant).
# CHEAL = assay: Post-emergence biological efficacy; conditions: Chenopodium album, 312 h, evaluated after 13 days, read-out: damage to plant (100=total damage to plant; 0=no damage to plant), CHEAL
# Protocol: as §4
# as §2, with “8 days” for “one day”
# as §5
# DIGSA = assay: Post-emergence biological efficacy; conditions: Digitaria sanguinalis, 312 h, evaluated after 13 days, read-out: damage to plant (100=total damage to plant; 0=no damage to plant), DIGSA
# Protocol: as §4
# as §2, with “8 days” for “one day”
# as §5
# ECHCG [8] = assay: Post-emergence biological efficacy; conditions: Echinochloa crus-galli, 312 h, evaluated after 13 days, read-out: damage to plant (100=total damage to plant; 0=no damage to plant), ECHCG
# Protocol: as §4
# as §2, with “8 days” for “one day”
# as §5
# ELEIN = assay: Post-emergence biological efficacy; conditions: 312 h, evaluated after 13 days, read-out: damage to plant (100=total damage to plant; 0=no damage to plant), ELEIN
# Protocol: as §4
# as §2, with “8 days” for “one day”
# as §5
# EPHHL [9] = assay: Post-emergence biological efficacy; conditions: 312 h, evaluated after 13 days, read-out: damage to plant (100=total damage to plant; 0=no damage to plant), EPHHL
# Protocol: as §4
# as §2, with “8 days” for “one day”
# as §5
# IPOHE [10] = assay: Post-emergence biological efficacy; conditions: Ipomoea hederacea, 312 h, evaluated after 13 days, read-out: damage to plant (100=total damage to plant; 0=no damage to plant), IPOHE
# Protocol: as §4
# as §2, with “8 days” for “one day”
# as §5
# LOLPE [11] = assay: Post-emergence biological efficacy; conditions: 312 h, evaluated after 13 days, read-out: damage to plant (100=total damage to plant; 0=no damage to plant), LOLPE
# Protocol: as §4
# as §2, with “8 days” for “one day”
# as §5
# SETFA [12] = assay: Post-emergence biological efficacy; conditions: Setaria faberi, 312 h, evaluated after 13 days, read-out: damage to plant (100=total damage to plant; 0=no damage to plant), SETFA
# Protocol: as §4
# as §2, with “8 days” for “one day”
# as §5
SMILES,pest or weed control at 250 g/ha (AMAPA [1]),pest or weed control at 250 g/ha (ECHCG [2]),pest or weed control at 250 g/ha (EPHHL [3]),pest or weed control at 250 g/ha (IPOHE [4]),pest or weed control at 250 g/ha (LOLPE [5]),pest or weed control at 250 g/ha (SETFA [6]),pest or weed control at 250 g/ha (AMAPA [7]),pest or weed control at 250 g/ha (CHEAL),pest or weed control at 250 g/ha (DIGSA),pest or weed control at 250 g/ha (ECHCG [8]),pest or weed control at 250 g/ha (ELEIN),pest or weed control at 250 g/ha (EPHHL [9]),pest or weed control at 250 g/ha (IPOHE [10]),pest or weed control at 250 g/ha (LOLPE [11]),pest or weed control at 250 g/ha (SETFA [12])
"Cn1c(=S)n(C)c(=O)n(-c2cc(C3=NOC(C)(CO)C3)c(Cl)cc2F)c1=O (stereo not drawn) [Compound 49, 3-[4-chloro-2-fluoro-5-[5-(hydroxymethyl)-5-methyl-4H-isoxazol-3-yl]phenyl]-1,5-dimethyl-6-thioxo-1,3,5-triazinane-2,4-dione]",100%,90%,100%,90%,90%,100%,100%,100%,90%,70%,90%,100%,100%,60%,100%
"Cn1c(=S)n(C)c(=O)n(-c2cc(C3=NOC(C)(C(=O)O)C3)c(Cl)cc2Cl)c1=O (stereo not drawn) [Compound 56, 3-[2,4-dichloro-5-(3,5-dimethyl-2,6-dioxo-4-thioxo-1,3,5-triazinan-1-yl)-phenyl]-5-methyl-4H-isoxazole-5-carboxylic acid]",90%,0%,10%,30%,10%,10%,100%,90%,80%,90%,80%,80%,90%,30%,90%
CO/N=C(\C)C1(C)CC(c2cc(-n3c(=O)n(C)c(=S)n(C)c3=O)c(F)cc2Cl)=NO1 (stereo not drawn) [Compound 293],100%,90%,100%,50%,90%,100%,100%,100%,100%,30%,90%,100%,100%,60%,90%
"CC(=O)OCC1(C)CC(c2cc(-n3c(=O)n(C)c(=S)n(C)c3=O)c(F)cc2Cl)=NO1 (stereo not drawn) [Compound 51, [3-[2-Chloro-5-(3,5-dimethyl-2,6-dioxo-4-thioxo-1,3,5-triazinan-1-yl)-4-fluoro-phenyl]-5-methyl-4H-isoxazol-5-yl]methyl acetate]",100%,90%,100%,80%,90%,100%,100%,100%,100%,30%,80%,100%,90%,50%,100%
"Cn1c(=S)n(C)c(=O)n(-c2cc(C3=NOC(C)(C(=O)O)C3)c(Cl)cc2F)c1=O (stereo not drawn) [Compound 45, 3-[2-chloro-5-(3,5-dimethyl-2,6-dioxo-4-thioxo-1,3,5-triazinan-1-yl)-4-fluoro-phenyl]-5-methyl-4H-isoxazole-5-carboxylic acid]",100%,100%,100%,100%,100%,100%,100%,100%,100%,100%,100%,100%,100%,100%,100%
"CC(=NO)C1(C)CC(c2cc(-n3c(=O)n(C)c(=S)n(C)c3=O)c(F)cc2Cl)NO1 (stereo not drawn) [Compound 296, 3-[4-Chloro-2-fluoro-5-[5-[N-hydroxy-C-methyl-carbonimidoyl]-5-methyl-isoxazolidin-3-yl]phenyl]-1,5-dimethyl-6-thioxo-1,3,5-triazinane-2,4-dione]",100%,80%,90%,90%,80%,100%,100%,100%,70%,30%,90%,80%,90%,70%,80%
"CCOC(=O)C1(C)CC(c2cc(-n3c(=O)n(C)c(=S)n(C)c3=O)ccc2Cl)=NO1 (stereo not drawn) [Compound 36, Ethyl 3-[2-chloro-5-(3,5-dimethyl-2,6-dioxo-4-thioxo-1,3,5-triazinan-1-yl)phenyl]-5-methyl-4H-isoxazole-5-carboxylate]",70%,90%,70%,40%,10%,90%,100%,90%,100%,100%,50%,90%,70%,50%,100%
"COC(=O)C1(OC)CC(c2cc(-n3c(=O)n(C)c(=S)n(C)c3=O)c(F)cc2Cl)=NO1 (stereo not drawn) [Compound 311, Methyl 3-[2-chloro-5-(3,5-dimethyl-2,6-dioxo-4-thioxo-1,3,5-triazinan-1-yl)-4-fluoro-phenyl]-5-methoxy-4H-isoxazole-5-carboxylate]",100%,10%,50%,70%,10%,90%,90%,90%,80%,90%,90%,90%,90%,50%,100%
"CCOC(=O)C1(C)CC(c2cc(-n3c(=O)n(C)c(=S)n(C)c3=O)c(Cl)cc2Cl)=NO1 (stereo not drawn) [Compound 58, Ethyl 3-[2,4-dichloro-5-(3,5-dimethyl-2,6-dioxo-4-thioxo-1,3,5-triazinan-1-yl)phenyl]-5-methyl-4H-isoxazole-5-carboxylate]",90%,0%,0%,60%,0%,0%,90%,90%,80%,90%,90%,70%,100%,30%,90%
